Results: PMC10574351, “First-Row Transition Metal Complexes Incorporating the 2-(2′-pyridyl)quinoxaline Ligand (pqx), as Potent Inflammatory Mediators: Cytotoxic Properties and Biological Activities against the Platelet-Activating Factor (PAF) and Thrombin” (Molecules, 2023)

Tested on: dithiothreitol-insensitive PAF choline phosphotransferase (PAF-CPT)
Experiment: PAF-CPT activity assay on leukocyte homogenate
Type: biochemical
Details: rabbit leukocyte homogenate; Figure 8
Procedure: The experiment on the inhibitory effect of each compound of interest against the washed rabbit platelets (WRPs) aggregation was carried out as per the already described method. The platelets were from male New Zealand white rabbits (about 20), individually housed in stainless steel cages in an air-conditioned room (19 ± 1 °C, 55 ± 5% humidity on a 12/12 h artificial light/dark cycle). Blood samples were drawn from the main ear artery. Microliters of PAF in a final concentration of about 10^–10 M were added to the cuvette of the aggregometer, and the height of the platelet aggregation was monitored. […] Dithiothreitol-insensitive PAF choline phosphotransferase, lyso-PAF:acetyl-CoA acetyltransferase and PAF-acetylhydrolase activity assays were performed on the homogenates of rabbit leukocytes while the activity of lipoprotein-associated phospholipase A2 was assessed on plasma as previously described. […] All results were expressed as mean ± standard deviation (SD). […] Data were analyzed using a statistical software package (SPSS for Windows, 16.0, 2007, SPSS Inc., Chicago, IL, USA) and Microsoft Excel 2007. […]

Substance: [Fe(pqx)Cl2]2 [Complex 6]
- inhibition of the specific activity of PAF-CPT: inhibit, in a dose-dependent way
